Values quoted from earlier work in US9839630B2, “Method of preparing (+)-1,4-dihydro-7-[(3S,4S)-3-methoxy-4-(methylamino)-1-pyrrolidinyl]-4-oxo-1-(2-thiazolyl)-1,8-naphthyridine-3-carboxylic acid” (Sunesis Pharmaceuticals, Inc., priority 2008, dated 2017).

How the values were obtained:
[1] = data of WO 2007/146335
[2] = test system: various cancer cell lines; conditions: literature
[3] = test system: acute myeloid leukemia; conditions: human cancer patients, clinical trials
[4] = test system: xenografts; conditions: literature
[5] = test system: ovarian cancer; conditions: human cancer patients, clinical trials

SMILES	activity in a cytotoxicity assay [1]	preclinical activity against various cancer cell lines [2]	clinical activity against acute myeloid leukemia [3]	preclinical activity against xenografts [4]	clinical activity against ovarian cancer [5]
CO[C@H]1CN(c2ccc3c(=O)c(C(=O)O)cn(-c4nccs4)c3n2)C[C@@H]1N [N-desmethyl compound, (+)-1,4-dihydro-7-[(3S,4S)-3-methoxy-4-amino-1-pyrrolidinyl]-4-oxo-1-(2-thiazolyl)-1,8-naphthyridine-3-carboxylic acid]	active	–	–	–	–
CN[C@H]1CN(c2ccc3c(=O)c(C(=O)O)cn(-c4nccs4)c3n2)C[C@@H]1OC [SNS-595, (+)-1,4-dihydro-7-[(3S,4S)-3-methoxy-4-(methylamino)-1-pyrrolidinyl]-4-oxo-1-(2-thiazolyl)-1,8-naphthyridine-3-carboxylic acid]	–	preclinical activity	clinical activity	preclinical activity	clinical activity
